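Exposure lasted 48 hours, with cells grown in 96-well plates and compounds tested at five concentrations. Abbreviation: GI50, concentration required for 50% inhibition of growth.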 Activity calls are given as the source filed them. Rule as the data show it: active = GI50 up to about 1.1 µM and inactive = higher.
Tests used:
Experiment in all cases: inhibition of tumour cell growth, NCI panel, 48 h
786-0 = test system: 786-0
CCRF-CEM = test system: CCRF-CEM
DU-145 = test system: DU-145
HOP-62 = test system: HOP-62
HOP-92 = test system: HOP-92
HT-29 = test system: HT-29
K562 = test system: K562
LOX IMVI = test system: LOX IMVI
MCF7 = test system: MCF7
NCI-H460 = test system: NCI-H460
NCI/ADR-RES = test system: NCI/ADR-RES
OVCAR-3 = test system: OVCAR-3
OVCAR-4 = test system: OVCAR-4
RXF 393 = test system: RXF 393
SF-268 = test system: SF-268
SF-295 = test system: SF-295
SK-MEL-28 = test system: SK-MEL-28
SK-MEL-2 = test system: SK-MEL-2
SNB-19 = test system: SNB-19
U-251 = test system: U-251

| SMILES | GI50 (786-0) | GI50 (CCRF-CEM) | GI50 (DU-145) | GI50 (HOP-62) | GI50 (HOP-92) | GI50 (HT-29) | GI50 (K562) | GI50 (LOX IMVI) | GI50 (MCF7) | GI50 (NCI-H460) | GI50 (NCI/ADR-RES) | GI50 (OVCAR-3) | GI50 (OVCAR-4) | GI50 (RXF 393) | GI50 (SF-268) | GI50 (SF-295) | GI50 (SK-MEL-28) | GI50 (SK-MEL-2) | GI50 (SNB-19) | GI50 (U-251) |
| --- | --- | --- | --- | --- | --- | --- | --- | --- | --- | --- | --- | --- | --- | --- | --- | --- | --- | --- | --- | --- |
| C1CCNCC1.Oc1ncnc2[nH]cc(CN3CCCCC3)c12 | 22.9 µM (inactive) | 16.4 µM (inactive) | 32.5 µM (inactive) | > 100 µM (inactive) | 77.3 µM (inactive) | 39.3 µM (inactive) | > 100 µM (inactive) | > 100 µM (inactive) | 28.8 µM (inactive) | 16 µM (inactive) | > 100 µM (inactive) | > 100 µM (inactive) | 62.4 µM (inactive) | 43.8 µM (inactive) | 87.9 µM (inactive) | > 100 µM (inactive) | > 100 µM (inactive) | > 100 µM (inactive) | > 100 µM (inactive) | > 100 µM (inactive) |
| CN(C)Cc1cc(C(=O)O)cc(CN(C)C)c1O | > 100 µM (inactive) | > 100 µM (inactive) | > 100 µM (inactive) | > 100 µM (inactive) | > 100 µM (inactive) | > 100 µM (inactive) | > 100 µM (inactive) | > 100 µM (inactive) | > 100 µM (inactive) | > 100 µM (inactive) | > 100 µM (inactive) | > 100 µM (inactive) | > 100 µM (inactive) | > 100 µM (inactive) | > 100 µM (inactive) | > 100 µM (inactive) | > 100 µM (inactive) | > 100 µM (inactive) | > 100 µM (inactive) | > 100 µM (inactive) |
| CCN1CCC(O)(/C=C/c2ccc(C(C)C)cc2)C(C(=O)/C=C/c2ccc(C(C)C)cc2)C1 (stereo not drawn) | 1.71 µM (inactive) | 1.16 µM (inactive) | 3.34 µM (inactive) | 3.52 µM (inactive) | 1.85 µM (inactive) | 2.24 µM (inactive) | 2.72 µM (inactive) | 0.895 µM (active) | 2.46 µM (inactive) | 1.53 µM (inactive) | 3.08 µM (inactive) | 2.84 µM (inactive) | 3.04 µM (inactive) | 2.56 µM (inactive) | 1.96 µM (inactive) | 2.9 µM (inactive) | 4.51 µM (inactive) | 3.08 µM (inactive) | 3.8 µM (inactive) | 2.61 µM (inactive) |
| O=C1C2CCN(CC2)C1(CO)CO | 28.2 µM (inactive) | 5.06 µM (inactive) | 17.3 µM (inactive) | > 88.5 µM (inactive) | 22 µM (inactive) | 28 µM (inactive) | 23.6 µM (inactive) | 16 µM (inactive) | 24.7 µM (inactive) | 66.7 µM (inactive) | 24.5 µM (inactive) | 15.9 µM (inactive) | 19.4 µM (inactive) | 21.1 µM (inactive) | > 100 µM (inactive) | > 100 µM (inactive) | 26.4 µM (inactive) | 71.8 µM (inactive) | > 100 µM (inactive) | 41.1 µM (inactive) |
| C[C@H](NC(=O)C(Cc1ccccc1)(Cc1ccc(O)cn1)NC(=O)c1ccccc1)c1ccccc1 (stereo partly drawn) | 16.7 µM (inactive) | 30.5 µM (inactive) | 18.6 µM (inactive) | 17.9 µM (inactive) | 21.3 µM (inactive) | 17.5 µM (inactive) | 34 µM (inactive) | 14.8 µM (inactive) | 24.2 µM (inactive) |  | 17.4 µM (inactive) | 14.7 µM (inactive) | 15.1 µM (inactive) | 14.3 µM (inactive) | 18.2 µM (inactive) | 14.6 µM (inactive) | 18.5 µM (inactive) | 14.2 µM (inactive) | 18.8 µM (inactive) | 15.3 µM (inactive) |
| CC(NNC(=O)c1ccncc1)c1ccccc1 (stereo not drawn) | > 100 µM (inactive) | > 100 µM (inactive) | > 100 µM (inactive) | > 100 µM (inactive) | > 100 µM (inactive) | > 100 µM (inactive) | > 100 µM (inactive) | > 100 µM (inactive) | > 100 µM (inactive) |  | > 100 µM (inactive) | > 100 µM (inactive) | > 100 µM (inactive) | > 100 µM (inactive) | > 100 µM (inactive) | > 100 µM (inactive) | > 100 µM (inactive) | > 100 µM (inactive) | > 100 µM (inactive) | > 100 µM (inactive) |
| C/C(CC(O)(C(F)(F)F)C(F)(F)F)=N\NC(N)=O | > 10 µM (inactive) | > 10 µM (inactive) | > 10 µM (inactive) | > 10 µM (inactive) | > 10 µM (inactive) | > 10 µM (inactive) | > 10 µM (inactive) | > 10 µM (inactive) | > 10 µM (inactive) | > 10 µM (inactive) | > 10 µM (inactive) | > 10 µM (inactive) | > 10 µM (inactive) | > 10 µM (inactive) | > 10 µM (inactive) | > 10 µM (inactive) | > 10 µM (inactive) | > 10 µM (inactive) | > 10 µM (inactive) | > 10 µM (inactive) |
